Reference: patent US11173124B2, “Oral delivery of GLP-1 peptide analogs” (MEDIMMUNE LIMITED, priority 2017, dated 2021)
Starred links: 1 amine or outer side, 2 acyl side, 3 side chain; linkers in the order of their positions; H or OH if unused. Non-standard residues stand in square brackets, D forms with d. Residues, ends and D or L forms follow the SMILES beside them. Groups on a side chain read outwards from the residue. Primed or numbered codes have the meaning given here. ξ: configuration not given here. *: point of attachment. γGlu = O=C(O)[C@H](CCC(=O)[*:2])N[*:1]; αMeF = C[C@](N)(Cc1ccccc1)C(=O)O; ξαMeF = CC(N)(Cc1ccccc1)C(=O)O; αMeK = C[C@](N)(CCCCN)C(=O)O; Lauroyl = CCCCCCCCCCCC(=O)*; ξαMeK = CC(N)(CCCCN)C(=O)O; PEG2′ = not defined here; ξαMeS = CC(N)(CO)C(=O)O; AEEA = NCCOCCOCC(=O)O; Aib = CC(C)(N)C(=O)O

How the values were obtained:
[1] = Canine site of absorption study, IntelliCap, SEQ ID NO:5 solution formulations (Example 11); assay type: in vivo, Beagle dogs; details: for bioavailability / AUC(0-t) / Cmax / Tmax: dog; for bioavailability: plasma; for AUC(0-t) / Cmax / Tmax: in vivo
Text: The IntelliCap® system, an electronic oral drug delivery and monitoring device, was used to determine regional absorption for solution formulations. In the form of a capsule, the IntelliCap® incorporates a microprocessor, battery, pH sensor, temperature sensor, radio frequency (RF) wireless transceiver, fluid pump, and drug reservoir. The IntelliCap® system can determine the drug's position in the gastrointestinal (GI) tract by a pH monitoring sensor in the capsule, thereby eliminating the need for in vivo imaging. This system was employed to assess the site of absorption of GLP-1 peptide analogs in the GI tract following oral delivery to canines (Beagle dogs). Solution formulations without permeation enhancer excipients were used as intravenous (IV) and subcutaneous (SC) controls in the study. In brief, solution formulations were prepared and transferred to the IntelliCap® capsule which was dosed to canines, wherein the formulation was released at a specific site in the GI tract.
An additional site of absorption study was performed to evaluate the best site of absorption of the SEQ ID NO:5 GLP-1 peptide analog solution formulations after oral administration of IntelliCap capsules to canines (Beagle dogs). Delivery of the SEQ ID NO:5 peptide to the proximal small bowel (after pylorus passage), distal small bowel (before ileocecal passage), and proximal colon (after ileocecal passage) were studied.

Caco-2 cells = test: Caco-2 study, Permeability (%) of lipidated peptides (Example 3); assay type: in vitro ADME, human; details: 0.1 mg/mL peptide
Text: The Caco-2 cell line is a continuous cell line of heterogeneous human epithelial colorectal adenocarcinoma cells, which when cultured under specific conditions, become differentiated and polarized such that their phenotype, morphologically and functionally, resembles the enterocytes lining the small intestine. Caco-2 cells express tight junctions, microvilli, and a number of enzymes and transporters that are characteristic of such enterocytes. Caco-2 cells are most commonly used as a tight junction monolayer that provides a physical and biochemical barrier to the passage of drugs and thus serves as an in vitro model of the human small intestinal mucosa to predict the absorption of orally administered drugs. Caco-2 permeability assays were performed by Cyprotex US, LLC (MA, USA) to assess the efficacy of different permeation enhancers. Caco-2 cells were grown on Transwell filters until a transepithelial electric resistance of ˜1000 ohms/cm^2 was achieved. The cells were incubated for three hours with media containing test samples on the apical (top) side of the cell layer, and with blank media on the basolateral (lower) side of the cell layer. Media from the apical and basolateral sides was collected separately after three hours and evaluated for the amount of peptide present on each side. Table 2 gives the permeability coefficient (Papp) of the various test samples, which include the SEQ ID NO:3 GLP-1 peptide in the presence of different excipients.
A following Caco-2 study was performed to evaluate the permeability of different peptides in the presence of various permeation enhancers. Permeability (%) was calculated by dividing the cumulative amount of molecules transported with the original loading amount. Concentrations of peptides in starting sample and apical and basal solutions after incubation for pre-determined periods were analyzed by HPLC. Sodium chenodeoxycholate at 25 mg/mL effected the highest permeability of each tested peptide (Table 4).

physchem = details: pH 5.5
Text: A known amount of the permeation enhancer, the peptide, or both were combined with increasing amounts of buffer until the permeation enhancer and/or the peptide were completely solubilized.

[2] = Intravenous, 0.03 mg/kg, 0.3 mg/mL peptide in 50 mM Tris, 150 mM Mannitol, 0.02% PS80, pH 8.0
[3] = IntelliCap, Distal small bowel, 0.81 mg/kg, 12 mg/mL peptide, 25 mg/mL Na CDC, 12.5 mg/mL PG, pH 8.0
[4] = IntelliCap, Proximal colon, 0.85 mg/kg, 12 mg/mL peptide, 25 mg/mL Na CDC, 12.5 mg/mL PG, pH 8.0
[5] = IntelliCap, Proximal small bowel, 0.86 mg/kg, 12 mg/mL peptide, 25 mg/mL Na CDC, 12.5 mg/mL PG, pH 8.0
[6] = sc, Subcutaneous, 0.03 mg/kg, 0.3 mg/mL peptide in 50 mM Tris, 150 mM Mannitol, 0.02% PS80, pH 8.0
[7] = 5.0 mg/mL Sodium Chenodeoxycholate
[8] = 25 mg/mL Sodium Chenodeoxycholate

## CCCCCCCCCCCC(=O)N[C@@H](CCC(=O)NCCOCCOCC(=O)NCCOCCOCC(=O)NCCCC[C@H](NC(=O)[C@H](C)NC(=O)[C@@H](NC(=O)[C@H](Cc1ccccc1)NC(=O)[C@H](CCC(=O)O)NC(=O)C(C)(CCCCN)NC(=O)[C@H](C)NC(=O)[C@H](C)NC(=O)[C@H](CCC(=O)O)NC(=O)CNC(=O)[C@H](CCC(=O)O)NC(=O)[C@H](CC(C)C)NC(=O)[C@H](Cc1ccc(O)cc1)NC(=O)[C@H](CCCCNC(=O)COCCOCCNC(=O)COCCOCCNC(=O)CC[C@H](NC(=O)CCCCCCCCCCC)C(=O)O)NC(=O)[C@H](CO)NC(=O)[C@@H](NC(=O)[C@H](CC(=O)O)NC(=O)[C@H](CO)NC(=O)[C@@H](NC(=O)C(C)(Cc1ccccc1)NC(=O)[C@H](CO)NC(=O)CNC(=O)[C@H](CCC(=O)O)NC(=O)C(C)(C)NC(=O)[C@@H](N)Cc1c[nH]cn1)[C@@H](C)O)C(C)C)[C@@H](C)CC)C(=O)N[C@H](C(=O)N[C@H](C(=O)N[C@@H](CCC(=O)O)C(=O)NCC(=O)NCC(N)=O)C(C)C)C(C)C)C(=O)O (stereo partly shown) [SEQ ID NO: 5, Free-H-[AIB]-EGS-[αMePhe]-TSDVSK[(PEG2)2-γE-Lauroyl]-YLEGEAA-[αMeLys]-EFIAK[(PEG2)2-γE-Lauroyl]-VVEGG-amide]
[1]; Beagle, po, IntelliCap, Distal small bowel, 0.81 mg/kg, 12 mg/mL peptide, 25 mg/mL Na CDC, 12.5 mg/mL PG, pH 8.0
  bioavailability: 0.3%
[1]; Beagle, po, IntelliCap, Proximal colon, 0.85 mg/kg, 12 mg/mL peptide, 25 mg/mL Na CDC, 12.5 mg/mL PG, pH 8.0
  bioavailability: 2.6%
[1]; Beagle, po, IntelliCap, Proximal small bowel, 0.86 mg/kg, 12 mg/mL peptide, 25 mg/mL Na CDC, 12.5 mg/mL PG, pH 8.0
  bioavailability: 0.5%
[1]; [2]
  F: 100%
  AUC(0-t): 2 µg·h/mL
  Cmax: 0.449 µg/mL
  Tmax: 15 min
[1]; beagle, sc, Subcutaneous, 0.03 mg/kg, 0.3 mg/mL peptide in 50 mM Tris, 150 mM Mannitol, 0.02% PS80, pH 8.0
  bioavailability: 87%
[1]; [3]
  AUC(0-t): 0.166 µg·h/mL
  Cmax: 0.051 µg/mL
  Tmax: 15 min
[1]; [4]
  AUC(0-t): 1.5 µg·h/mL
  Cmax: 0.301 µg/mL
  Tmax: 15 min
[1]; [5]
  AUC(0-t): 0.297 µg·h/mL
  Cmax: 0.075 µg/mL
  Tmax: 15 min
[1]; [6]
  AUC(0-t): 1.77 µg·h/mL
  Cmax: 0.144 µg/mL
  Tmax: 240 min
Caco-2 cells; [7]
  Permeability (%): 3.2%
Caco-2 cells; [8]
  Permeability (%): 10.4%

## CC[C@H](C)[C@H](NC(=O)[C@H](Cc1ccccc1)NC(=O)[C@H](CCC(=O)O)NC(=O)[C@H](CCCCNC(=O)COCCOCCNC(=O)COCCOCCNC(=O)CC[C@H](NC(=O)CCCCCCCCCCCCCCCCC(=O)O)C(=O)O)NC(=O)[C@H](C)NC(=O)[C@H](C)NC(=O)[C@H](CCC(=O)O)NC(=O)CNC(=O)[C@H](CCC(=O)O)NC(=O)[C@H](CC(C)C)NC(=O)C(C)(Cc1ccccc1)NC(=O)[C@H](CO)NC(=O)C(C)(CO)NC(=O)[C@@H](NC(=O)[C@H](CC(=O)O)NC(=O)[C@H](CO)NC(=O)[C@@H](NC(=O)C(C)(Cc1ccccc1)NC(=O)[C@H](CO)NC(=O)CNC(=O)[C@H](CCC(=O)O)NC(=O)C(C)(C)NC(=O)[C@@H](N)Cc1c[nH]cn1)[C@@H](C)O)C(C)C)C(=O)N[C@@H](C)C(=O)NC(C)(Cc1ccccc1)C(=O)N[C@H](C(=O)N[C@H](C(=O)NC(C)(CCCCN)C(=O)NCC(=O)NCC(N)=O)C(C)C)C(C)C (stereo partly drawn) [SEQ ID NO: 4, Free-H-[AIB]-EGS-[αMePhe]-TSDV-[αMeSer]-S-[αMePhe]-LEGEAAK[(PEG2)2-γE-Stearate]-EFIA-[αMePhe]-VV-[αMeLys]-GG-amide]
Caco-2 cells; [7]
  Permeability (%): 0%
Caco-2 cells; [8]
  Permeability (%): 14.3%

## CCCCCCCCCCCC(=O)N[C@@H](CCC(=O)NCCOCCOCC(=O)NCCOCCOCC(=O)NCCCC[C@H](NC(=O)[C@H](CC(=O)O)NC(=O)[C@H](CO)NC(=O)[C@@H](NC(=O)C(C)(Cc1ccccc1)NC(=O)[C@H](CO)NC(=O)CNC(=O)[C@H](CCC(=O)O)NC(=O)C(C)(C)NC(=O)[C@@H](N)Cc1c[nH]cn1)[C@@H](C)O)C(=O)N[C@@H](CO)C(=O)N[C@@H](CO)C(=O)N[C@@H](Cc1ccc(O)cc1)C(=O)N[C@@H](CC(C)C)C(=O)N[C@@H](CCC(=O)O)C(=O)NCC(=O)N[C@@H](CCC(=O)O)C(=O)N[C@@H](C)C(=O)N[C@@H](C)C(=O)NC(C)(CCCCN)C(=O)N[C@@H](CCC(=O)O)C(=O)N[C@@H](Cc1ccccc1)C(=O)N[C@H](C(=O)N[C@@H](CCCCNC(=O)COCCOCCNC(=O)COCCOCCNC(=O)CC[C@H](NC(=O)CCCCCCCCCCC)C(=O)O)C(=O)N[C@@H](Cc1c[nH]c2ccccc12)C(=O)N[C@H](C(=O)N[C@H](C(=O)N[C@@H](CCC(=O)O)C(=O)NCC(=O)NCC(N)=O)C(C)C)C(C)C)[C@@H](C)CC)C(=O)O (stereo partly shown) [SEQ ID NO: 8] (H-H[Aib]EGS[ξαMeF]TSDK([AEEA-AEEA-γGlu-Lauroyl])SSYLEGEAA[ξαMeK]EFIK([AEEA-AEEA-γGlu-Lauroyl])WVVEGG-NH2)
Caco-2 cells; [7]
  Permeability (%): 1.7%
Caco-2 cells; [8]
  Permeability (%): 11.6%

## CCCCCCCCCCCC(=O)N[C@@H](CCC(=O)NCCOCCOCC(=O)NCCOCCOCC(=O)NCCCC[C@H](NC(=O)[C@H](C)NC(=O)[C@@H](NC(=O)[C@H](Cc1ccccc1)NC(=O)[C@H](CCC(=O)O)NC(=O)C(C)(CCCCN)NC(=O)[C@H](C)NC(=O)[C@H](C)NC(=O)[C@H](CCC(=O)O)NC(=O)CNC(=O)[C@H](CCC(=O)O)NC(=O)[C@H](CCCCNC(=O)COCCOCCNC(=O)COCCOCCNC(=O)CC[C@H](NC(=O)CCCCCCCCCCC)C(=O)O)NC(=O)[C@H](Cc1ccc(O)cc1)NC(=O)[C@H](CO)NC(=O)C(C)(CO)NC(=O)[C@@H](NC(=O)[C@H](CC(=O)O)NC(=O)[C@H](CO)NC(=O)[C@@H](NC(=O)C(C)(Cc1ccccc1)NC(=O)[C@H](CO)NC(=O)CNC(=O)[C@H](CCC(=O)O)NC(=O)C(C)(C)NC(=O)[C@@H](N)Cc1c[nH]cn1)[C@@H](C)O)C(C)C)[C@@H](C)CC)C(=O)N[C@H](C(=O)N[C@H](C(=O)N[C@@H](CCC(=O)O)C(=O)NCC(=O)NCC(N)=O)C(C)C)C(C)C)C(=O)O (stereo partly shown) [SEQ ID NO: 9, Free-H-[AIB]-EGS-[αMePhe]-TSDV-[αMeSer]-SYK[(PEG2)2-γE-Lauroyl]-EGEAA-[αMeLys]-EFIAK[(PEG2)2-γE-Lauroyl]-VVEGG-amide] (H-H[Aib]EGS[ξαMeF]TSDV[ξαMeS]SYK([AEEA-AEEA-γGlu-Lauroyl])EGEAA[ξαMeK]EFIAK([AEEA-AEEA-γGlu-Lauroyl])VVEGG-NH2)
Caco-2 cells; [7]
  Permeability (%): 3.1%
Caco-2 cells; [8]
  Permeability (%): 13.9%

## C[C@H](CCC(=O)[O-])[C@H]1CC[C@H]2[C@@H]3[C@H](O)C[C@@H]4C[C@H](O)CC[C@]4(C)[C@H]3CC[C@]12C.[Na+] [Sodium Chenodeoxycholate]
physchem
  solubility: >200 mg/mL

## Free-H-[AIB]-EGS-[αMePhe]-TSDVSK[(PEG2)2-γE-Lauroyl]-YLEGEAA-[αMeLys]-EFIAWK[(PEG2)2-γE-Lauroyl]-VEGG-amide (H-H[Aib]EGS[αMeF]TSDVSK([PEG2′-PEG2′-γGlu-Lauroyl])YLEGEAA[αMeK]EFIAWK([PEG2′-PEG2′-γGlu-Lauroyl])VEGG-NH2) [SEQ ID NO: 7]
Caco-2 cells; [7]
  Permeability (%): 2.1%
Caco-2 cells; [8]
  Permeability (%): 10.3%
